# Measurements published in ChEMBL document CHEMBL1151740, “Structurally constrained hybrid derivatives containing octahydrobenzo[g or f]quinoline moieties for dopamine D2 and D3 receptors: binding characterization at D2/D3 receptors and elucidation of a pharmacophore model” (J Med Chem, 2008).
# Legend:
# D(2) dopamine receptor = D(2) dopamine receptor (Rattus norvegicus, UniProt P61169); assay: Displacement of [3H]Spiperone from rat dopamine D2L receptor expressed in HEK293 cells; assay type: cell-based
# D(3) dopamine receptor = D(3) dopamine receptor (Rattus norvegicus, UniProt P19020); assay: Displacement of [3H]Spiperone from rat dopamine D3 receptor expressed in HEK293 cells; assay type: cell-based
# Chain of D(3) dopamine receptor (P19020 whole entry): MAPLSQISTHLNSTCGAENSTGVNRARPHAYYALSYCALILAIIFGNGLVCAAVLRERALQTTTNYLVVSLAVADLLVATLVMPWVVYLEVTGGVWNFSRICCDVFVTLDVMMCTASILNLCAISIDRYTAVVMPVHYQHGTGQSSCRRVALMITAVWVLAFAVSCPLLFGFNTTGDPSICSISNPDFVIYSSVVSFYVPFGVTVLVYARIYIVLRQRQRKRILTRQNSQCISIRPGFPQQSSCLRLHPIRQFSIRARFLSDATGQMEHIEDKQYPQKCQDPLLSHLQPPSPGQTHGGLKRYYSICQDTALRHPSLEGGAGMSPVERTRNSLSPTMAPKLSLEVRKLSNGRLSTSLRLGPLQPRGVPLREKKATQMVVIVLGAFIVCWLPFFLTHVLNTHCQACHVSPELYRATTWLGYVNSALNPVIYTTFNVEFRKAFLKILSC
# Chain of D(2) dopamine receptor (P61169 whole entry): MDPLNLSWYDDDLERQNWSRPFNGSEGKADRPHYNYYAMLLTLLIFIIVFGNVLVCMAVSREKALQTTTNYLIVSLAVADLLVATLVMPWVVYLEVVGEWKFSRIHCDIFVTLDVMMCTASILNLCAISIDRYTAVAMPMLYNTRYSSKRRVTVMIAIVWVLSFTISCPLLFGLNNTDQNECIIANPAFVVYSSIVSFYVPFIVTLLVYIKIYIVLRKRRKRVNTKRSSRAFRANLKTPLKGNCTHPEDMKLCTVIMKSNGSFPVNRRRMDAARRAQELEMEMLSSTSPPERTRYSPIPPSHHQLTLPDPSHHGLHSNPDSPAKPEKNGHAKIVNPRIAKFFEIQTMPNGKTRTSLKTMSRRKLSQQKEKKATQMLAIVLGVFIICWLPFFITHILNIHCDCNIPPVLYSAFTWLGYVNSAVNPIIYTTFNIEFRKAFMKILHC
Compound,Ki (D(2) dopamine receptor) [µM],Ki (D(3) dopamine receptor) [µM]
CCCN(CCN1CCN(c2ccccc2)CC1)[C@@H]1CCc2nc(N)sc2C1,1.98,0.044
Oc1ccc2c(c1)C[C@@H]1[C@@H](CCCN1CCN1CCN(c3cccc(Cl)c3Cl)CC1)C2 (racemic),0.148,0.187
CCCN1CCC[C@@H]2Cc3c(O)cccc3C[C@H]21 (racemic),2.78,0.395
Oc1cccc2c1CC[C@@H]1[C@@H]2CCCN1CCN1CCN(c2ccccc2)CC1,0.835,0.0893
CCCN(CCN1CCN(c2ccc(-c3ccccc3)cc2)CC1)[C@H]1CCc2nc(N)sc2C1,0.234,0.000925
CCCN1CCC[C@H]2c3cccc(O)c3CC[C@@H]21 (relative stereo),0.347,0.096
Oc1cccc2c1C[C@@H]1CCCN(CCN3CCN(c4cccc(Cl)c4Cl)CC3)[C@H]1C2 (racemic),0.136,0.168
Oc1cccc2c1CC[C@H]1[C@H]2CCCN1CCN1CCN(c2ccccc2)CC1,0.0236,0.00495
CCCN(CCN1CCN(c2ccccc2)CC1)[C@H]1CCc2ccc(O)cc2C1,0.809,0.0386
Oc1ccc2c(c1)C[C@H]1[C@@H](CCCN1CCCCN1CCN(c3ccccc3)CC1)C2 (racemic),0.289,0.102

# Results, then the compound that gave them:
Ki (D(2) dopamine receptor) [µM],Ki (D(3) dopamine receptor) [µM],Compound
0.338,0.256,Oc1ccc2c(c1)C[C@H]1[C@@H](CCCN1CCN1CCN(c3cccc(Cl)c3Cl)CC1)C2 (racemic)
0.219,0.0722,Oc1ccc2c(c1)[C@@H]1CCCN(CCN3CCN(c4ccccc4)CC3)[C@H]1CC2
1.71,0.736,Oc1cccc2c1C[C@@H]1CCCN(CCN3CCN(c4ccccc4)CC3)[C@H]1C2 (racemic)
2.52,0.473,Oc1ccc2c(c1)C[C@H]1[C@@H](CCCN1CCN1CCN(c3ccccc3)CC1)C2 (racemic)
0.243,0.00415,CCCN(CCN1CCN(c2ccccc2)CC1)[C@H]1CCc2nc(N)sc2C1
